According to patent US9783513B2, “STAT3 inhibitors and their anticancer use” (Ohio State Innovation Foundation, priority 2012, dated 2017):
pIC50, pKd: −log10 of the molar value. “Also recorded” adds a separate entry of the source. Like-named read-outs stand apart in the source and are kept apart here.

Columns and labels:
[1] = tested on: human sarcoma cell line U2OS; assay: Cell viability (MTT) assay, U2OS; format: cell-based
Method: (§1) Human sarcoma cell lines (RD2, RH30, U2OS) were seeded in 96-well plates at a density of 3,000 cells per well. The cells were incubated at 37° C. for a period of 24 hours. Different concentrations of LY-5 (0.1-10 μM), LY-3 (0.1-20 μM), and LLL12 (0.1-10 μM) prepared as a 20 mM stock solution in sterile DMSO were added in triplicate to the plates in the presence of 10% FBS. 3-(4,5-Dimethylthiazolyl)-2, 5-diphenyltetrazoliumbromide (MTT) was added to evaluate cell viability. The absorbance was read at 595 nm. IC50 values were determined using SigmaPlot 9.0 Software (Systat Software, Inc., San Jose, Calif.).
(§2) Alternatively, cells were seeded in 96-well plates in triplicate at a density of 3,000 cells per well and given 24 hours to adhere. Cells were then treated with varying concentrations of the inhibitors in the presence of 10% FBS. The cells were incubated for 72 hours at 37° C. 25 μl of MTT dye (Sigma, #M5655) was added to each sample and incubated for 3.5 hours. After this, 100 μl of N,N-dimethylformamide (Sigma, #D4551) solubilization solution was added to each well. The absorbance at 450 nm was read the following day. Half-Maximal inhibitory concentrations (IC50) were determined using Sigma Plot 9.0 software (Systat Software Inc.).
Table 6 below lists specific compounds as well as experimentally determined STAT3 activity in a cell-based assay. The STAT3 activity was determined using the cell viability assays with human sarcoma cell line U2OS as described above. The compounds in Table 6 were synthesized with methods identical or analogous to those described herein. The compound reference numbers (“Ref. No.”) in Table 6 correspond to the compound numbers used in Table 3.

[2] = tested on: OSM induced STAT3 phosphorylation; assay: Western blot, OSM induced STAT3 phosphorylation; format: cell-based, human; conditions: MCF-7; 1-2.5 μM; OSM 50 ng/mL
STAT5 = assay: Western blot, STAT5 after OSM stimulation; format: cell-based, human; conditions: MCF-7; 1 and 2.5 μM; OSM 50 ng/mL
Method: (§3) RH30 cells were treated with DMSO, LY-5 (0.25-1 μM) and LY-3 (0.5-2.5 μM) prepared as a 20 mM stock solution in sterile DMSO at 60% to 80% confluence in the presence of 10% FBS for 24 hours. The sarcoma cell line EW8 was treated with DMSO and LY-5 (0.5-2.5 μM) prepared as a 20 mM stock solution in sterile DMSO at 60% to 80% confluence in the presence of 10% FBS for 24 hours. MCF-7 cells and DAOY cells were treated with DMSO, 25-50 ng/ml of IL-6, LY-5 (0.25-1 μM) or LY-3 (0.5-2.5 μM) prepared as a 20 mM stock solution in sterile DMSO, protein expressions of P-STAT3 (Tyr705) and STAT3 were tested. DAOY cells were treated with DMSO, 50 ng/ml of IFN-γ, LY-5 (1-5 μM) prepared as a 20 mM stock solution in sterile DMSO, protein expressions of P-STAT3 (Tyr705) and STAT3 were tested. MCF-7 cells were treated with DMSO, 50 ng/ml of OSM, LY-5 (1-2.5 μM) or LLL12 (1-2.5 μM) prepared as a 20 mM stock solution in sterile DMSO, protein expressions of P-STAT3 (Tyr705), P-STAT1, P-STAT5, P-ERK (T202/Y204), P-AKT, STAT3 and STAT1 were tested.
MCF-7 breast cancer cells were seeded in 10 cm plates and allowed to adhere overnight. The following day, the cells were serum-starved. The cells were then left untreated or were treated with LY-5 and LLL12 (1 μM and 2.5 μM) prepared as a 20 mM stock solution in sterile DMSO or DMSO. […] The cells were harvested after 30 minutes and analyzed by Western blot.

[3] = tested on: phosphorylated STAT3 (Tyr705); assay: Western blot, constitutive STAT3 phosphorylation; format: cell-based, human; conditions: RH30
[4] = tested on: human sarcoma cell line RD2; assay: Cell viability (MTT) assay, RD2; format: cell-based
Method: as §1, §2
(§4) Table 7 below lists specific compounds as well as experimentally determined STAT3 activity in a cell-based assay. The STAT3 activity was determined using the cell viability assays with human sarcoma cell lines (RD2, RH30, U2OS) as described above. The compound reference numbers (“Ref. No.”) in Table 7 correspond to the compound numbers used in Table 3.

[5] = tested on: IL-6 induced STAT3 phosphorylation; assay: Western blot, IL-6 induced STAT3 phosphorylation; format: cell-based, human; conditions: MCF-7; LY-3 0.5-2.5 μM, LY-5 0.25-1 μM; 5 h; IL-6 25 ng/mL
Method: as §3
The cells were harvested and lysed in cold radioimmunoprecipitation assay (RIPA) lysis buffer containing […] and phosphatase inhibitor cocktail, and were subjected to SDS-PAGE. Then they were transferred to PVDF membrane. Membranes were probed with primary antibodies (1:1,000) and horseradish peroxidase (HRP)-conjugated secondary antibody (1:10,000) (Cell Signaling Technology, Beverly, Mass.). Membranes were analyzed using Enhanced Chemiluminescence Plus reagents and scanned with the Storm Scanner (Amersham Pharmacia Biotech, Inc., Piscataway, N.J.).
MCF-7 breast cancer cells were seeded in 10 cm plates and allowed to adhere overnight. The following day, the cells were serum-starved. The cells were then left untreated or were treated with LY-5 (0.25-1 μM) and LY-3 (0.5-2.5 μM) prepared as a 20 mM stock solution in sterile DMSO or DMSO. After 5 hours, the untreated and LY-5 and LY-3 treated cells were stimulated by IL-6 (25 ng/mL). The cells were harvested after 30 minutes and analyzed by Western blot. DAOY medulloblastoma cancer cells were seeded in 10 cm plates and allowed to adhere overnight. The following day, the cells were serum-starved. The cells were then left untreated or were treated with LY-5 (1-5 μM) prepared as a 20 mM stock solution in sterile DMSO or DMSO. After 2 hours, the untreated and LY-5 treated cells were stimulated by IL-6 (25 ng/mL). The cells were harvested after 30 minutes and analyzed by Western blot.

[6] = tested on: human sarcoma cell line RH30; assay: Cell viability (MTT) assay, RH30; format: cell-based
Method: as §1, §2, §4

STAT3 = STAT3 (Homo sapiens, UniProt P40763); assay: Microscale thermophoresis binding to STAT3; conditions: labeled STAT3 30 nM; LY17 1.52-50,000 nM
Method: The method provides the dissociation constant, KD. The microscale thermophoresis experiments were carried out at NanoTemper Technologies, Inc. (Munich, Germany). In these experiments, the concentration of the NanoTemper-labeled STAT3 was kept constant (30 nM), while the concentration of the non-labeled binding partner (LY17) was varied between 1.52 nM-50,000 nM. After a short incubation the samples were loaded into MST standard glass capillaries and the MST-analysis was performed using the Monolith.NT115.

[7] = Homo sapiens, Table 8, read-out: IC50 values vs. cell lines, U2OS
[8] = Homo sapiens, Table 2, cell line not given, read-out: IC50

STAT3, sequence (P40763 whole entry): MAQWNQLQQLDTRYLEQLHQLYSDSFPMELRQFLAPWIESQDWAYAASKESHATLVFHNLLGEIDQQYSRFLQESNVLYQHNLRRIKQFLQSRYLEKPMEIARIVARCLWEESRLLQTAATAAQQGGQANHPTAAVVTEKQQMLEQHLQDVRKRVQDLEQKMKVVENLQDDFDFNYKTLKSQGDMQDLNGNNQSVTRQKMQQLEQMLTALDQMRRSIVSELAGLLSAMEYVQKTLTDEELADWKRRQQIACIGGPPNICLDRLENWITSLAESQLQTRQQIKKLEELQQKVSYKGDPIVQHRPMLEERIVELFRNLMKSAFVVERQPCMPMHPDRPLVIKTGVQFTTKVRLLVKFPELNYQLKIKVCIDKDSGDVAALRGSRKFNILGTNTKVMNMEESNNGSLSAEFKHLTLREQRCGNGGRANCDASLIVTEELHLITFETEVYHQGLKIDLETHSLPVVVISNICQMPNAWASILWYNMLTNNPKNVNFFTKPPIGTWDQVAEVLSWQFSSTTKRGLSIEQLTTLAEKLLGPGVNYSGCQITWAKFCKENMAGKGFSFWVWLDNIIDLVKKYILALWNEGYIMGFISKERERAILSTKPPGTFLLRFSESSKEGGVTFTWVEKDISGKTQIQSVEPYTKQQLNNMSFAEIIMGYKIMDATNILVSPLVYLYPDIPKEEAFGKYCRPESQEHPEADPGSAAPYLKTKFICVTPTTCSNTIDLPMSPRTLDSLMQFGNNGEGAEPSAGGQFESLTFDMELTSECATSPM

Compound: 4-(naphthalen-2-ylamino)-5H-naphtho[1,8-cd]isothiazol-5-one 1,1-dioxide [LY-6]
- pIC50 ([1]; Table 6, read-out: IC50): 5.60

Compound: NS(=O)(=O)c1cccc2c1C(=O)C=C(Nc1ccccc1)C2=O [LY-7, 5,8-dioxo-6-(phenylamino)-5,8-dihydronaphthalene-1-sulfonamide]
- pIC50 ([1]; Homo sapiens, Table 6, read-out: IC50): < 5.30

Compound: NS(=O)(=O)c1cccc2c1C(=O)c1cccc(O)c1C2=O [LLL12, 5-hydroxy-9,10-dioxo-9,10-dihydroanthracene-1-sulfonamide, reference compound]
- OSM induced STAT3 phosphorylation [2]: inhibit
- inhibition of STAT5 (STAT5): exhibit inhibition
- STAT3 phosphorylation at Y705 and S727 ([3]; 5 μM in DMSO or ethanol, 2 h): decrease in STAT3 phosphorylation at Y705 and S727
- pIC50 [1, 7]: 6.00

Compound: 5,8-dioxo-6-(phenylamino)-5,8-dihydronaphthalene-1-sulfonamide [LY-7]
- pIC50 ([1]; Table 2, cell line not given, read-out: IC50): 5.60

Compound: NC(=O)NS(=O)(=O)c1ccc(NC2=CC(=O)c3c(cccc3S(N)(=O)=O)C2=O)cc1 [LY-9]
- pIC50 [1, 8]: < 5.30

Compound: O=C1C(Nc2ccc([N+](=O)[O-])cc2Cl)=CC2=NS(=O)(=O)c3cccc1c32 [LY-3, 4-((2-chloro-4-nitrophenyl)amino)-5H-naphtho[1,8-cd]isothiazol-5-one 1,1-dioxide]
- pIC50 ([4]; Table 7, read-out: IC50 RD2): 5.59
- pIC50 ([4]; Table 8, read-out: IC50 values vs. cell lines, RD2): 5.59
- concentration almost completely inhibiting Tyr705 phosphorylation ([3]; 16 h): 1 µM
- constitutive STAT3 phosphorylation ([3]; LY-3 0.5-2.5 μM, LY-5 0.25-1 μM, 16 h): decrease in STAT3 phosphorylation; also recorded: reduced in a dose-dependent manner
- IL-6 induced STAT3 phosphorylation [5]: inhibit; also recorded: blocked the stimulation
- pIC50 ([6]; Table 7, read-out: IC50 RH30): 5.94
- pIC50 ([6]; Table 8, read-out: IC50 values vs. cell lines, RH30): 5.94
- pIC50 [1, 8]: 5.85
- pIC50 ([1]; Homo sapiens, Table 7, read-out: IC50 U2OS): 5.86
- pIC50 [1, 7]: 5.86

Compound: O=C1C(Nc2ccccc2)=CC2=NS(=O)(=O)c3cccc1c32 [LY-2, 4-(Phenylamino)-5H-naphtho[1,8-cd]isothiazol-5-one 1,1-dioxide]
- pIC50 [1, 8]: 5.30

Compound: NS(=O)(=O)c1cccc2c1C(=O)C=C(Nc1ccccc1N1CCNCC1)C2=O [LY-17]
- pKd (STAT3): 5.62
